This assay deals with P388 leukemia ip, CD2F1 mice, survival T/C. The assay is described as follows: NCI In Vivo Anticancer Drug Screen. Data for tumor model P388 Leukemia (intraperitoneal) in CD2F1 (CDF1) mice. The settings on record: endpoint: median survival time, higher = longer survival. The gist of the method: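 Mice carrying the transplanted tumor received test compound or vehicle. Survival was recorded in each group, and the value is the treated-group measurement divided by that of the vehicle-treated control group.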

Setting [1] is: dose: 100.0 mg/kg/injection, schedule: Q01DX009 (ip), vehicle: saline with Tween-80.
Where [2] appears, read: dose: 100.0 mg/kg/injection, schedule: Q04DX003 (ip), vehicle: saline with Tween-80.
The mark [3] stands for this setting: dose: 200.0 mg/kg/injection, schedule: Q01DX009 (ip), vehicle: saline with Tween-80.
Where [4] appears, read: dose: 200.0 mg/kg/injection, schedule: Q04DX003 (ip), vehicle: saline with Tween-80.
Setting [5] is: dose: 400.0 mg/kg/injection, schedule: Q04DX003 (ip), vehicle: saline with Tween-80.
Where [6] appears, read: dose: 50.0 mg/kg/injection, schedule: Q01DX005 (ip), vehicle: saline with Tween-80.
The mark [7] stands for this setting: dose: 100.0 mg/kg/injection, schedule: Q01DX005 (ip), vehicle: saline with Tween-80.
The mark [8] stands for this setting: dose: 200.0 mg/kg/injection, schedule: Q01DX005 (ip), vehicle: saline with Tween-80.
The mark [9] stands for this setting: dose: 60.0 mg/kg/injection, schedule: Q01DX005 (ip), vehicle: saline with Tween-80.
Where [10] appears, read: dose: 120.0 mg/kg/injection, schedule: Q01DX005 (ip), vehicle: saline with Tween-80.
The mark [11] stands for this setting: dose: 240.0 mg/kg/injection, schedule: Q01DX005 (ip), vehicle: saline with Tween-80.
Where [12] appears, read: dose: 12.5 mg/kg/injection, schedule: Q01DX009 (ip), vehicle: saline with Tween-80.
The mark [13] stands for this setting: dose: 50.0 mg/kg/injection, schedule: Q01DX009 (ip), vehicle: saline with Tween-80.

Values joined by “and” are separate entries in the source; they are usually repeats but may differ in a detail not shown here. Equal values may be shown once. Toxic doses and inconclusive results are not listed.

With `CC1(C)CCC2=C1CC[C@H]1[C@H]2CCC2=CC(=O)CC[C@@]21C`, the T/C runs as follows: under setting [1], 90 % of control; under setting [2], 110 % of control; under setting [3], 100 % of control; under setting [4], 105 % of control; under setting [5], 115 % of control.

With `COc1ccc2cc3cc[n+](C)cc3cc2c1OC`, the T/C is, setting by setting: (dose: 12.5 mg/kg/injection, schedule: Q01DX009 (ip), vehicle: water) 114 % of control; (dose: 25.0 mg/kg/injection, schedule: Q01DX009 (ip), vehicle: water) 119 % of control.

On to `Ic1ccc(Nc2ncnc3sc4c(c23)CCCC4)cc1`, for which the T/C was 111 % of control under setting [6], 94 % of control under setting [7] and 92 % of control under setting [8].

On to `ClC(Cl)=[C](Cl)[Hg][C](Cl)=C(Cl)Cl`, for which the T/C runs as follows: (dose: 3.13 mg/kg/injection, schedule: Q01DX009 (ip), vehicle: Klucel (hydroxypropylcellulose) (HPC)) 105 % of control; (dose: 6.25 mg/kg/injection, schedule: Q01DX009 (ip), vehicle: Klucel (hydroxypropylcellulose) (HPC)) 100 % of control; (dose: 12.5 mg/kg/injection, schedule: Q01DX009 (ip), vehicle: Klucel (hydroxypropylcellulose) (HPC)) 97 % of control.

In the case of `OCCN(CCO)CC(O)c1cc(-c2ccccc2)nc2ccccc12` (configuration not stated), the T/C runs as follows: (dose: 12.5 mg/kg/injection, schedule: Q01DX005 (ip), vehicle: Klucel (hydroxypropylcellulose) (HPC)) 103 % of control; (dose: 25.0 mg/kg/injection, schedule: Q01DX005 (ip), vehicle: Klucel (hydroxypropylcellulose) (HPC)) 94 % of control; (dose: 50.0 mg/kg/injection, schedule: Q01DX005 (ip), vehicle: Klucel (hydroxypropylcellulose) (HPC)) 102 % of control and 103 % of control; (dose: 100.0 mg/kg/injection, schedule: Q01DX005 (ip), vehicle: Klucel (hydroxypropylcellulose) (HPC)) 110 % of control.

As for `CC(C)(C)NC(=O)NCCCCCCNC(=O)NC(C)(C)C`, the T/C runs as follows: under setting [9], 96 % of control; under setting [10], 96 % of control; under setting [11], 101 % of control.

For `O=C1N(Cl)C(=O)C(c2ccc(Cl)cc2)(c2ccc(Cl)cc2)N1Cl`, the T/C is, setting by setting: under setting [12], 118 % of control; under setting [13], 150 % of control.

For `CCOC(=O)C1CC(=O)SC1=O` (configuration not stated), the T/C (dose: 25.0 mg/kg/injection, schedule: Q04DX002 (ip), vehicle: saline with Tween-80) is 101 % of control; the T/C (dose: 50.0 mg/kg/injection, schedule: Q04DX002 (ip), vehicle: saline with Tween-80) was 100 % of control; the T/C (dose: 100.0 mg/kg/injection, schedule: Q04DX002 (ip), vehicle: saline with Tween-80) is 99 % of control.

Regarding `NC(N)=NCCCC1NC(=O)C(Cc2ccc(O)cc2)NC1=O` (configuration not stated), the T/C is 98 % of control and 93 % of control under setting [6]; 100 % of control under setting [7]; 100 % of control and 101 % of control under setting [8].

Consider `NNc1ncc(S(=O)(=O)Cc2ccc3c(c2)OCO3)c(N)n1`, for which the T/C was 101 % of control (dose: 100.0 mg/kg/injection, schedule: Q01DX001 (ip), vehicle: saline); 98 % of control (dose: 200.0 mg/kg/injection, schedule: Q01DX001 (ip), vehicle: saline); 98 % of control (dose: 400.0 mg/kg/injection, schedule: Q01DX001 (ip), vehicle: saline).

For `C=C[C@]1(C)C=C2C(O)CC3C(C)(C)CCC[C@]3(CO)C2CC1` (some centres not stated), the T/C under setting [9] is 100 % of control, the T/C under setting [10] was 97 % of control and the T/C under setting [11] was 96 % of control.

For `C[N+]1=C2CCCCCC2=C(N)CC1`, the T/C runs as follows: (dose: 3.13 mg/kg/injection, schedule: Q04DX003 (ip), vehicle: saline) 100 % of control; (dose: 6.25 mg/kg/injection, schedule: Q04DX003 (ip), vehicle: saline) 104 % of control; (dose: 12.5 mg/kg/injection, schedule: Q04DX003 (ip), vehicle: saline) 100 % of control.

In the case of `CC(/C=N\Nc1ccc(Cl)cc1)=N/NC(N)=S`, the T/C (dose: 100.0 mg/kg/injection, schedule: Q04DX002 (ip), vehicle: saline) was 99 % of control and the T/C (dose: 200.0 mg/kg/injection, schedule: Q04DX002 (ip), vehicle: saline) was 98 % of control.

For the molecule `O=[N+]([O-])c1ccc(/C=C/[P+](c2ccccc2)(c2ccccc2)c2ccccc2)o1`, the T/C was 103 % of control (dose: 0.78 mg/kg/injection, schedule: Q01DX009 (ip), vehicle: saline); 98 % of control (dose: 1.56 mg/kg/injection, schedule: Q01DX009 (ip), vehicle: saline); 101 % of control (dose: 3.12 mg/kg/injection, schedule: Q01DX009 (ip), vehicle: saline).

Consider `O=[N+]([O-])c1ccc(OCS(=O)(=O)c2ccc(Cl)cc2)cc1`, for which the T/C is, setting by setting: under setting [13], 95 % of control; under setting [1], 92 % of control; under setting [3], 95 % of control.

Consider `CCO/C([O-])=C(\C=N\S(=O)(=O)c1ccc(C)cc1)[n+]1ccccc1`, for which the T/C is 104 % of control (dose: 50.0 mg/kg/injection, schedule: Q01DX009 (ip), vehicle: Klucel (hydroxypropylcellulose) (HPC)); 105 % of control (dose: 100.0 mg/kg/injection, schedule: Q01DX009 (ip), vehicle: Klucel (hydroxypropylcellulose) (HPC)); 108 % of control (dose: 200.0 mg/kg/injection, schedule: Q01DX009 (ip), vehicle: Klucel (hydroxypropylcellulose) (HPC)).

In the case of `O=C1C(Cl)=CC(=NS(=O)(=O)c2ccccc2)C=C1Cl`, the T/C is, setting by setting: (dose: 3.13 mg/kg/injection, schedule: Q01DX009 (ip), vehicle: saline with Tween-80) 100 % of control; (dose: 6.25 mg/kg/injection, schedule: Q01DX009 (ip), vehicle: saline with Tween-80) 105 % of control; (dose: 6.25 mg/kg/injection, schedule: Q04DX003 (ip), vehicle: saline with Tween-80) 95 % of control; under setting [12], 120 % of control.

As to `N=C1C=CC2C(=Nc3ccccc3[N+]2=O)N1CCO` (configuration not stated), the T/C by setting is: (dose: 15.0 mg/kg/injection, schedule: Q01DX005 (ip), vehicle: saline with Tween-80) 99 % of control and 105 % of control; (dose: 30.0 mg/kg/injection, schedule: Q01DX005 (ip), vehicle: saline with Tween-80) 101 % of control and 112 % of control; under setting [9], 100 % of control and 103 % of control.

For the molecule `NC(C(=O)O)C(O)c1ccc2c(c1)OCO2` (configuration not stated), the T/C reads like this: under setting [2], 100 % of control; under setting [4], 100 % of control; under setting [5], 100 % of control.

For `c1ccc(C(c2ccccc2)[P+](c2ccccc2)(c2ccccc2)c2ccccc2)cc1`, the T/C was 101 % of control (dose: 0.15 mg/kg/injection, schedule: Q01DX009 (ip), vehicle: Klucel (hydroxypropylcellulose) (HPC)); 109 % of control and 114 % of control (dose: 0.31 mg/kg/injection, schedule: Q01DX009 (ip), vehicle: Klucel (hydroxypropylcellulose) (HPC)); 111 % of control (dose: 0.63 mg/kg/injection, schedule: Q01DX009 (ip), vehicle: Klucel (hydroxypropylcellulose) (HPC)); 118 % of control and 123 % of control and 86 % of control (dose: 1.25 mg/kg/injection, schedule: Q01DX009 (ip), vehicle: Klucel (hydroxypropylcellulose) (HPC)).

The record behind these values is PubChem BioAssay AID330 (DTP/NCI, 2004).
